Experimental data from US20250144094A1 (Erasca, Inc., priority 2021, published 2025).
pIC50: −log10 of the molar value.

Biological target: Recombinant human ULK1 (1-649) (Homo sapiens (Human), UniProt O75385)
Test: ULK1 ADP Glo kinase activity assay, new method (ULKtide peptide substrate)
Conditions: 25° C., 40 minutes, read-out: ULK1 biochemical IC50
In short: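 GST-tagged human ULK1 (1-649) from Sf9 cells was reacted with ULKtide peptide and ATP for 40 min at 25 °C across 12-point compound dilutions from 10 μM. ADP formed was quantified by ADP-Glo luminescence; IC50 came from four-parameter fits relative to DMSO controls.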

Recombinant human ULK1 (1-649), sequence (O75385 1-649): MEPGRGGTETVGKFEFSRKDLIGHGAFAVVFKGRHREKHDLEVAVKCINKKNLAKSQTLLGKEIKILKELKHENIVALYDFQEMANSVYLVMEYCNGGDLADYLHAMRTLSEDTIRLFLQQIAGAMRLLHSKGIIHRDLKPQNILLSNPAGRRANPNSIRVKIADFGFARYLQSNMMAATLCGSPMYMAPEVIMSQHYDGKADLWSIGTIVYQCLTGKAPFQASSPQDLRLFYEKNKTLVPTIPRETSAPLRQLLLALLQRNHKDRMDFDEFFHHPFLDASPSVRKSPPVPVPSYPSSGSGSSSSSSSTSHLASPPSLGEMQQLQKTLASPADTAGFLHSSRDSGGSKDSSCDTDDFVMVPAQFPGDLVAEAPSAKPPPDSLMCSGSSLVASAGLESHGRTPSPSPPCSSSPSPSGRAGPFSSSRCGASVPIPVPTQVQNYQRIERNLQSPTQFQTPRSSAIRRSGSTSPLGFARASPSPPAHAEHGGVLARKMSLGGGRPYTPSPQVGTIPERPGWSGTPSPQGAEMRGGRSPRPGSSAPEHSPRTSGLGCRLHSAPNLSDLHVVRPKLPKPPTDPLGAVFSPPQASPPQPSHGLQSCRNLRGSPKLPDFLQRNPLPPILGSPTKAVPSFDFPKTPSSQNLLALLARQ

Row | SMILES | pIC50
1 | CN1C[C@@H]2C[C@H]1CN2c1ccc(Nc2ncc(C(F)(F)F)c(-c3cc4c(s3)C(=O)N(C3COC3)CCS4(=O)=O)n2)c(C2CC2)c1 [Example 317, 7-(2-((2-cyclopropyl-4-((1S,4S)-5-methyl-2,5-diazabicyclo[2.2.1]heptan-2-yl)phenyl)amino)-5-(trifluoromethyl)pyrimidin-4-yl)-4-(oxetan-3-yl)-3,4-dihydrothieno[2,3-f][1,4]thiazepin-5(2H)-one 1,1-dioxide] | ≥ 8.30
2 | O=C1c2sc(-c3nc(Nc4ccc(N5C[C@H]6CC[C@@H](C5)N6)cc4C4CC4)ncc3C(F)(F)F)cc2S(=O)(=O)CCN1C1COC1 [Example 318, 7-(2-((4-((1R,5S)-3,8-diazabicyclo[3.2.1]octan-3-yl)-2-cyclopropylphenyl)amino)-5-(trifluoromethyl)pyrimidin-4-yl)-4-(oxetan-3-yl)-3,4-dihydrothieno[2,3-f][1,4]thiazepin-5(2H)-one 1,1-dioxide] | ≥ 8.30
3 | CCc1cc(N2C[C@@H]3C[C@H]2CN3)ccc1Nc1ncc(C(F)(F)F)c(-c2cc3c(s2)C(=O)N(C2CC2)CCS3(=O)=O)n1 [Example 319, 7-(2-((4-((1S,4S)-2,5-diazabicyclo[2.2.1]heptan-2-yl)-2-ethylphenyl)amino)-5-(trifluoromethyl)pyrimidin-4-yl)-4-cyclopropyl-3,4-dihydrothieno[2,3-f][1,4]thiazepin-5(2H)-one 1,1-dioxide] | ≥ 8.30
4 | CN1[C@@H]2CC[C@H]1CN(c1ccc(Nc3ncc(C(F)(F)F)c(-c4cc5c(s4)C(=O)N(C4COC4)CCS5(=O)=O)n3)c(C3CC3)c1)C2 [Example 320, 7-(2-((2-cyclopropyl-4-((1R,5S)-8-methyl-3,8-diazabicyclo[3.2.1]octan-3-yl)phenyl)amino)-5-(trifluoromethyl)pyrimidin-4-yl)-4-(oxetan-3-yl)-3,4-dihydrothieno[2,3-f][1,4]thiazepin-5(2H)-one 1,1-dioxide] | ≥ 8.30
5 | CCc1cc(N2C[C@@H]3C[C@H]2CN3C)ccc1Nc1ncc(C(F)(F)F)c(-c2cc3c(s2)C(=O)N(C2CC2)CCS3(=O)=O)n1 [Example 321, 4-cyclopropyl-7-(2-((2-ethyl-4-((1S,4S)-5-methyl-2,5-diazabicyclo[2.2.1]heptan-2-yl)phenyl)amino)-5-(trifluoromethyl)pyrimidin-4-yl)-3,4-dihydrothieno[2,3-f][1,4]thiazepin-5(2H)-one 1,1-dioxide] | ≥ 8.30
6 | CCc1cc(N2C[C@H]3C[C@@H]2CN3)ccc1Nc1ncc(C(F)(F)F)c(-c2cc3c(s2)C(=O)N(C2CC2)CCS3(=O)=O)n1 [Example 322, 7-(2-((4-((1R,4R)-2,5-diazabicyclo[2.2.1]heptan-2-yl)-2-ethylphenyl)amino)-5-(trifluoromethyl)pyrimidin-4-yl)-4-cyclopropyl-3,4-dihydrothieno[2,3-f][1,4]thiazepin-5(2H)-one 1,1-dioxide] | ≥ 8.30
7 | CCc1cc(N2C[C@H]3C[C@@H]2CN3C)ccc1Nc1ncc(C(F)(F)F)c(-c2cc3c(s2)C(=O)N(C2CC2)CCS3(=O)=O)n1 [Example 323, 4-cyclopropyl-7-(2-((2-ethyl-4-((1R,4R)-5-methyl-2,5-diazabicyclo[2.2.1]heptan-2-yl)phenyl)amino)-5-(trifluoromethyl)pyrimidin-4-yl)-3,4-dihydrothieno[2,3-f][1,4]thiazepin-5(2H)-one 1,1-dioxide] | ≥ 8.30
8 | CCc1cc(N2C[C@H]3CC[C@@H](C2)N3)ccc1Nc1ncc(C(F)(F)F)c(-c2cc3c(s2)C(=O)N(C2CC2)CCS3(=O)=O)n1 [Example 324, 7-(2-((4-((1R,5S)-3,8-diazabicyclo[3.2.1]octan-3-yl)-2-ethylphenyl)amino)-5-(trifluoromethyl)pyrimidin-4-yl)-4-cyclopropyl-3,4-dihydrothieno[2,3-f][1,4]thiazepin-5(2H)-one 1,1-dioxide] | ≥ 8.30
9 | CCc1cc(N2C[C@H]3CC[C@@H](C2)N3C)ccc1Nc1ncc(C(F)(F)F)c(-c2cc3c(s2)C(=O)N(C2CC2)CCS3(=O)=O)n1 [Example 325, 4-cyclopropyl-7-(2-((2-ethyl-4-((1R,5S)-8-methyl-3,8-diazabicyclo[3.2.1]octan-3-yl)phenyl)amino)-5-(trifluoromethyl)pyrimidin-4-yl)-3,4-dihydrothieno[2,3-f][1,4]thiazepin-5(2H)-one 1,1-dioxide] | ≥ 8.30

Other lines, results leading:

Row | pIC50 | SMILES
10 | ≥ 8.30 | C[C@@H]1CN(c2ccc(Nc3ncc(C(F)(F)F)c(-c4cc5c(s4)C(=O)N(C4CC4)CCS5(=O)=O)n3)c(C3CC3)c2)C[C@H](C)N1 [Example 326, 4-cyclopropyl-7-(2-((2-cyclopropyl-4-((3S,5R)-3,5-dimethylpiperazin-1-yl)phenyl)amino)-5-(trifluoromethyl)pyrimidin-4-yl)-3,4-dihydrothieno[2,3-f][1,4]thiazepin-5(2H)-one 1,1-dioxide]
11 | ≥ 8.30 | C[C@H]1CN(c2ccc(Nc3ncc(C(F)(F)F)c(-c4cc5c(s4)C(=O)N(C4CC4)CCS5(=O)=O)n3)c(C3CC3)c2)C[C@H](C)N1 [Example 327, 4-cyclopropyl-7-(2-((2-cyclopropyl-4-((3S,5S)-3,5-dimethylpiperazin-1-yl)phenyl)amino)-5-(trifluoromethyl)pyrimidin-4-yl)-3,4-dihydrothieno[2,3-f][1,4]thiazepin-5(2H)-one 1,1-dioxide]
12 | 8.00 to 8.30 | C[C@H]1CN(c2ccc(Nc3ncc(C(F)(F)F)c(-c4cc5c(s4)C(=O)N(C4CC4)CCS5(=O)=O)n3)c(C3CC3)c2)C[C@H](C)N1C [Example 328, 4-cyclopropyl-7-(2-((2-cyclopropyl-4-((3S,5S)-3,4,5-trimethylpiperazin-1-yl)phenyl)amino)-5-(trifluoromethyl)pyrimidin-4-yl)-3,4-dihydrothieno[2,3-f][1,4]thiazepin-5(2H)-one 1,1-dioxide]
13 | ≥ 8.30 | O=C1c2sc(-c3nc(Nc4ccc(N5C[C@H]6C[C@@H]5CN6)cc4C4CC4)ncc3C(F)(F)F)cc2S(=O)(=O)CCN1C1CC1 [Example 329, 7-(2-((4-((1R,4R)-2,5-diazabicyclo[2.2.1]heptan-2-yl)-2-cyclopropylphenyl)amino)-5-(trifluoromethyl)pyrimidin-4-yl)-4-cyclopropyl-3,4-dihydrothieno[2,3-f][1,4]thiazepin-5(2H)-one 1,1-dioxide]
14 | ≥ 8.30 | CN1C[C@H]2C[C@@H]1CN2c1ccc(Nc2ncc(C(F)(F)F)c(-c3cc4c(s3)C(=O)N(C3CC3)CCS4(=O)=O)n2)c(C2CC2)c1 [Example 330, 4-cyclopropyl-7-(2-((2-cyclopropyl-4-((1R,4R)-5-methyl-2,5-diazabicyclo[2.2.1]heptan-2-yl)phenyl)amino)-5-(trifluoromethyl)pyrimidin-4-yl)-3,4-dihydrothieno[2,3-f][1,4]thiazepin-5(2H)-one 1,1-dioxide]
15 | ≥ 8.30 | C[C@H]1CN(c2ccc(Nc3ncc(C(F)(F)F)c(-c4cc5c(s4)C(=O)N(C4CC4)CCS5(=O)=O)n3)c(C3CC3)c2)CCN1 [Example 331, (S)-4-cyclopropyl-7-(2-((2-cyclopropyl-4-(3-methylpiperazin-1-yl)phenyl)amino)-5-(trifluoromethyl)pyrimidin-4-yl)-3,4-dihydrothieno[2,3-f][1,4]thiazepin-5(2H)-one 1,1-dioxide]
